Molecules are shown by their SMILES.

The experiment deals with human ERK-2 (Mitogen Activated Kinase 1) (Homo sapiens (Human), UniProt P28482). In words: ERK-2 Enzymatic Assay. The class given is biochemical. As to conditions: human ERK-2 enzyme 5 nM, 25 μM ATP, S/T17 peptide substrate; isomer = configuration of CR2R3. As to the method: Compounds were tested in an enzymatic assay using human ERK-2 (Mitogen Activated Kinase 1), recombinantly expressed as an n-terminal 6-His fusion protein in E. coli and corresponding to aa 8-360. […] Test compounds were diluted in DMSO in 3-fold serial dilutions at 100× final concentrations. […] The data collected from each well was fit to a straight line, and the resulting rates were used to calculate percent of control. Percent of control was plotted against compound concentration, and IC50 values were determined using a four-parameter fit.
human ERK-2 (Mitogen Activated Kinase 1), sequence (P28482 8-360): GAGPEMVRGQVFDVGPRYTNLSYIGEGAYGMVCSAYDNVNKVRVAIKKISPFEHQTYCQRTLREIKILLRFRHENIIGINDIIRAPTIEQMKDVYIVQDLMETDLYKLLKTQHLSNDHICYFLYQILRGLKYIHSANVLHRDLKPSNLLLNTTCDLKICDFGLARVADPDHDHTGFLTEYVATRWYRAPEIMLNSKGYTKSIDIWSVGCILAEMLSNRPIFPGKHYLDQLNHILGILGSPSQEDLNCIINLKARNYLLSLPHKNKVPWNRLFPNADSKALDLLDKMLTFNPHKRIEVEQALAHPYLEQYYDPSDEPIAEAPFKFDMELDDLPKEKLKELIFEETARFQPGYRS
One may read the IC50 as the concentration that inhibits the measured activity by half. A low value points to greater potency. The compound `COc1ccc(C[C@@H]2CN(C)c3cc(-c4ccnc(Nc5ccnn5C)c4)cc4nnc2n34)cc1` [(R) I-18, 4-(3-(4-methoxybenzyl)-5-methyl-4,5-dihydro-3H-1,2,2a^1,5-tetraazaacenaphthylen-7-yl)-N-(1-methyl-1H-pyrazol-5-yl)pyridin-2-amine] came in with an IC50 of 0.036 nM.
`CC(C)C[C@@H]1CN(C)c2cc(-c3ccnc(Nc4ccnn4C)c3)cc3nnc1n23` [(R) I-20, 4-(3-isobutyl-5-methyl-4,5-dihydro-3H-1,2,2a^1,5-tetraazaacenaphthylen-7-yl)-N-(1-methyl-1H-pyrazol-5-yl)pyridin-2-amine]: the half-inhibitory concentration (IC50) was 48.7 nM.
As for `Cn1nccc1Nc1nccc(-c2cc3n4c(nnc4c2)[C@H](Cc2ccc(F)cc2)CN3)n1` [(R) I-21, 4-(3-(4-fluorobenzyl)-4,5-dihydro-3H-1,2,2a^1,5-tetraazaacenaphthylen-7-yl)-N-(1-methyl-1H-pyrazol-5-yl)pyrimidin-2-amine], the IC50 was 0.731 nM.
Compound `CN1C(=O)C[C@@H](Cc2ccc(Cl)cc2)c2nnc3cc(-c4ccnc(Nc5ccnn5C)n4)cc1n23` [(R) I-22, 9-(4-chlorobenzyl)-6-methyl-4-(2-((1-methyl-1H-pyrazol-5-yl)amino)pyrimidin-4-yl)-8,9-dihydro-1,2,2a^1,6-tetraazabenzo[cd]azulen-7(6H)-one] gave an IC50 of 88.2 nM.
The compound `COc1ccc(C[C@@H]2CNc3cc(-c4ccnc(Nc5ccnn5C)n4)cc4nnc2n34)cn1` [(R) I-24, 4-(3-((6-methoxypyridin-3-yl)methyl)-4,5-dihydro-3H-1,2,2a^1,5-tetraazaacenaphthylen-7-yl)-N-(1-methyl-1H-pyrazol-5-yl)pyrimidin-2-amine] displayed an IC50 of 1.85 nM.
`Cn1nccc1Nc1nccc(-c2cc3n4c(nnc4c2)[C@H](COCc2ccccc2)CCO3)n1` [(R) I-29, 4-(9-((benzyloxy)methyl)-8,9-dihydro-7H-6-oxa-1,2,2a^1-triazabenzo[cd]azulen-4-yl)-N-(1-methyl-1H-pyrazol-5-yl)pyrimidin-2-amine] displayed an IC50 of 0.109 nM.
Compound `CN1C[C@@H](Cc2ccc(F)cc2)c2nnc3cc(-c4ccnc(Nc5ccnn5C)n4)cc1n23` [(R) I-31, 4-(3-(4-fluorobenzyl)-5-methyl-4,5-dihydro-3H-1,2,2a^1,5-tetraazaacenaphthylen-7-yl)-N-(1-methyl-1H-pyrazol-5-yl)pyrimidin-2-amine] showed an IC50 of 1.35 nM.
In turn, `Cn1nccc1Nc1nccc(-c2cc3n4c(nnc4c2)[C@H](Cc2ccc(Cl)cc2)CCO3)n1` [(R) I-36, 4-(9-(4-chlorobenzyl)-8,9-dihydro-7H-6-oxa-1,2,2a^1-triazabenzo[cd]azulen-4-yl)-N-(1-methyl-1H-pyrazol-5-yl)pyrimidin-2-amine] showed an IC50 of 0.69 nM.
The compound `Cn1nccc1Nc1cc(-c2cc3n4c(nnc4c2)[C@@H](Cc2ccccc2)CO3)ccn1` [(R) I-38, 4-(3-benzyl-3,4-dihydro-5-oxa-1,2,2a^1-triazaacenaphthylen-7-yl)-N-(1-methyl-1H-pyrazol-5-yl)pyridin-2-amine] showed an IC50 of 0.02 nM.
Regarding `CN1C(=O)C[C@@H](Cc2ccc(Cl)cc2)c2nnc3cc(-c4ccnc(Nc5ccnn5C)c4)cc1n23` [(R) I-40, 9-(4-chlorobenzyl)-6-methyl-4-(2-((1-methyl-1H-pyrazol-5-yl)amino)pyridin-4-yl)-8,9-dihydro-1,2,2a^1,6-tetraazabenzo[cd]azulen-7(6H)-one], half-maximal inhibition (IC50) was put at 1.35 nM.
The compound `Cn1nccc1Nc1nccc(-c2cc3n4c(nnc4c2)[C@@H](Cn2cc(Cl)cn2)CCO3)n1` [(R) I-42, (R)-4-(9-((4-chloro-1H-pyrazol-1-yl)methyl)-8,9-dihydro-7H-6-oxa-1,2,2a^1-triazabenzo[cd]azulen-4-yl)-N-(1-methyl-1H-pyrazol-5-yl)pyrimidin-2-amine] registered an IC50 of 0.079 nM.
The compound `COc1ncccc1C[C@@H]1CN(C)c2cc(-c3ccnc(Nc4ccnn4C)n3)cc3nnc1n23` [(R) I-43, 4-(3-((2-methoxypyridin-3-yl)methyl)-5-methyl-4,5-dihydro-3H-1,2,2a^1,5-tetraazaacenaphthylen-7-yl)-N-(1-methyl-1H-pyrazol-5-yl)pyrimidin-2-amine] yielded a concentration for half-maximal inhibition (IC50) of 120 nM.
